According to publication PMC3388095, “Fluorophore Labeled Kinase Detects Ligands That Bind within the MAPK Insert of p38α Kinase” (PLoS ONE, 2012):

What was measured:
Experiment in all cases: Kinase selectivity profile, 33P-ATP filter-binding assay
Format in all cases: biochemical
BTK = BTK (Homo sapiens, UniProt Q06187)
Experimental: (§1) Figure 5 Kinase selectivity profile of 1b. Compound 1b was profiled against a selected panel of 95 different kinases at a concentration of 10 µM employing a radioactive (^33P-ATP) filter-binding assay (National Centre for Protein Kinase Profiling, Dundee). The numbers represent the remaining kinase activity in %. […] TEXT PRINTED IN THE PICTURE: no label printed: Aurora B: 53; MNK2: 67; MINK1: 69; HER4: 71; MKK1: 75; PKBβ: 75; PHK: 76; PIM2: 76; PIM3: 77; CHK2: 78; PKD1: 79; TBK1: 79; PAK4: 80; Lck: 80; GSK3β: 80; IGF-1R: 81; p38δ MAPK: 81; PIM1: 82; SRPK1: 83; SmMLCK: 83; MAPKAP-K3: 84; EPH A2: 85; MELK: 85; CK2: 85; CK1: 86; CAMK1: 86; PLK1: 87; MST2: 87; IR-HIS: 87; BTK: 87; HIPK1: 87; p38α MAPK: 88; DYRK2: 88; JNK3: 88; PAK5: 88; IKKε: 89; p38β MAPK: 89; NUAK1: 90; PAK2: 90; MNK1: 91; ERK8: 91; GCK: 91; PRAK: 91; MLK1: 92; SGK1: 92; PAK6: 92; TTK: 92; BRSK2: 92; MARK4: 93; CHK1: 93; RIPK2: 94; CDK2-Cyclin A: 94; JNK1: 94; AMPK: 94; VEG-FR: 95; DYRK1A: 95; CAMKKβ: 95; PKCα: 96; S6K1: 96; MSK1: 96; PKCz: 96; YES1: 96; RSK1: 97; IRAK4: 97; DYRK3: 97; IKKβ: 97; ERK2: 98; MLK3: 98; RSK2: 98; LKB1: 98; MAPKAP-K2: 98; ERK1: 99; FGF-R1: 99; SYK: 99; MST4: 99; MARK3: 99; MARK2: 100; PDK1: 100; JNK2: 101; HIPK2: 101; BRSK1: 102; EF2K: 102; PRK2: 103; Aurora A: 104; IRR: 104; CSK: 104; PKA: 104; NEK6: 105; p38γ MAPK: 105; Src: 107; PKBα: 109; ROCK 2: 109; EPH-B3: 112; HIPK3: 115; NEK2α: 119 DOUBTS OF THE COPYIST ABOUT THIS PICTURE: The picture prints no compound label and no measure or unit for the numbers; only the colour scale 'Inhibition weak/strong' is printed. / PKCz: the last letter may be z or ζ / NEK2α: the last letter may be a or α / IKKε: the last letter may be ε or e

CDK2-Cyclin A = CDK2-Cyclin A (Homo sapiens, UniProt P24941)
Experimental: as §1

DYRK1A = DYRK1A (Homo sapiens, UniProt Q13627)
Experimental: as §1

EF2K = EF2K (Homo sapiens, UniProt O00418)
Experimental: as §1

ERK1 = ERK1 (Homo sapiens, UniProt P27361)
Experimental: as §1

ERK8 = ERK8 (Homo sapiens, UniProt Q8TD08)
Experimental: as §1

HER4 = HER4 (Homo sapiens, UniProt Q15303)
Experimental: as §1

HIPK3 = HIPK3 (Homo sapiens, UniProt Q9H422)
Experimental: as §1

IKKε = IKKε (Homo sapiens, UniProt Q14164)
Experimental: as §1

JNK3 = JNK3 (Homo sapiens, UniProt P53779)
Experimental: as §1

MARK3 = MARK3 (Homo sapiens, UniProt P27448)
Experimental: as §1

MARK4 = MARK4 (Homo sapiens, UniProt Q96L34)
Experimental: as §1

MST2 = MST2 (Homo sapiens, UniProt Q13188)
Experimental: as §1

NEK2α = NEK2α (Homo sapiens, UniProt P51955)
Experimental: as §1

PAK4 = PAK4 (Homo sapiens, UniProt O96013)
Experimental: as §1

PAK5 = PAK5 (Homo sapiens, UniProt Q9P286)
Experimental: as §1

PIM3 = PIM3 (Homo sapiens, UniProt Q86V86)
Experimental: as §1

PKBα = PKBα (Homo sapiens, UniProt P31749)
Experimental: as §1

PKCz = PKCz (Homo sapiens, UniProt Q05513)
Experimental: as §1

PRK2 = PRK2 (Homo sapiens, UniProt Q16513)
Experimental: as §1

ROCK 2 = ROCK 2 (Rattus norvegicus, UniProt Q62868)
Experimental: as §1

SRPK1 = SRPK1 (Homo sapiens, UniProt Q96SB4)
Experimental: as §1

TBK1 = TBK1 (Homo sapiens, UniProt Q9UHD2)
Experimental: as §1

TTK = TTK (Homo sapiens, UniProt P33981)
Experimental: as §1

YES1 = YES1 (Homo sapiens, UniProt P07947)
Experimental: as §1

p38α MAPK = p38α MAPK (Homo sapiens, UniProt Q16539)
Experimental: as §1

p38β MAPK = p38β MAPK (Homo sapiens, UniProt Q15759)
Experimental: as §1

Chain of p38α MAPK (Q16539 whole entry): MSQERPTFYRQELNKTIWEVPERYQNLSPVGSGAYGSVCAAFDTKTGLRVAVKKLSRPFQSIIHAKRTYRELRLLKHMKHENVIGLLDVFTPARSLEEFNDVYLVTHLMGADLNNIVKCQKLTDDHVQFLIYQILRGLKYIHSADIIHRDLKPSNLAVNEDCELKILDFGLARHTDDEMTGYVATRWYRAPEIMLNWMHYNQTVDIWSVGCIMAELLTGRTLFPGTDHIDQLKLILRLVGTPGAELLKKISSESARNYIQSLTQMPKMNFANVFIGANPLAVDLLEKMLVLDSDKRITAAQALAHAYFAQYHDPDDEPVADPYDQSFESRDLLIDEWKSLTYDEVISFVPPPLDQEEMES
Chain of IKKε (Q14164 whole entry): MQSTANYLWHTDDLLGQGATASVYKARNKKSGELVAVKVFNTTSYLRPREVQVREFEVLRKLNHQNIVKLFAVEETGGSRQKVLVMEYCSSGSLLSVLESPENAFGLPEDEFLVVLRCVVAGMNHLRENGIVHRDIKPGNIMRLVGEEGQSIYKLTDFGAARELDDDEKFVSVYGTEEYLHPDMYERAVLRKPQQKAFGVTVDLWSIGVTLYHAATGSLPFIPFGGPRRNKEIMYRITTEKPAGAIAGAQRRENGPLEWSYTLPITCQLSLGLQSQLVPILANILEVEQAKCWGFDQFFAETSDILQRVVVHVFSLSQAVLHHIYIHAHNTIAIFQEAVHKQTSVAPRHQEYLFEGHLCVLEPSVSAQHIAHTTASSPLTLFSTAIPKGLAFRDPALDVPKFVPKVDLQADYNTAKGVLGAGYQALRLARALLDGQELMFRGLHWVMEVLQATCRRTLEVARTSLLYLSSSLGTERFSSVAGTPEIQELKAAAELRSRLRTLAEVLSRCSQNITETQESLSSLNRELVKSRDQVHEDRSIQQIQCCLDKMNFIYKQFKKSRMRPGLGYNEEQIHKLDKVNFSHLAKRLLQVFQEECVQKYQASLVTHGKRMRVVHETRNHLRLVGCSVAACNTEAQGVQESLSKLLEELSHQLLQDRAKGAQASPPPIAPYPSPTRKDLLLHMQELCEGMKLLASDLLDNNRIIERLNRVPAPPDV
Chain of PRK2 (Q16513 whole entry): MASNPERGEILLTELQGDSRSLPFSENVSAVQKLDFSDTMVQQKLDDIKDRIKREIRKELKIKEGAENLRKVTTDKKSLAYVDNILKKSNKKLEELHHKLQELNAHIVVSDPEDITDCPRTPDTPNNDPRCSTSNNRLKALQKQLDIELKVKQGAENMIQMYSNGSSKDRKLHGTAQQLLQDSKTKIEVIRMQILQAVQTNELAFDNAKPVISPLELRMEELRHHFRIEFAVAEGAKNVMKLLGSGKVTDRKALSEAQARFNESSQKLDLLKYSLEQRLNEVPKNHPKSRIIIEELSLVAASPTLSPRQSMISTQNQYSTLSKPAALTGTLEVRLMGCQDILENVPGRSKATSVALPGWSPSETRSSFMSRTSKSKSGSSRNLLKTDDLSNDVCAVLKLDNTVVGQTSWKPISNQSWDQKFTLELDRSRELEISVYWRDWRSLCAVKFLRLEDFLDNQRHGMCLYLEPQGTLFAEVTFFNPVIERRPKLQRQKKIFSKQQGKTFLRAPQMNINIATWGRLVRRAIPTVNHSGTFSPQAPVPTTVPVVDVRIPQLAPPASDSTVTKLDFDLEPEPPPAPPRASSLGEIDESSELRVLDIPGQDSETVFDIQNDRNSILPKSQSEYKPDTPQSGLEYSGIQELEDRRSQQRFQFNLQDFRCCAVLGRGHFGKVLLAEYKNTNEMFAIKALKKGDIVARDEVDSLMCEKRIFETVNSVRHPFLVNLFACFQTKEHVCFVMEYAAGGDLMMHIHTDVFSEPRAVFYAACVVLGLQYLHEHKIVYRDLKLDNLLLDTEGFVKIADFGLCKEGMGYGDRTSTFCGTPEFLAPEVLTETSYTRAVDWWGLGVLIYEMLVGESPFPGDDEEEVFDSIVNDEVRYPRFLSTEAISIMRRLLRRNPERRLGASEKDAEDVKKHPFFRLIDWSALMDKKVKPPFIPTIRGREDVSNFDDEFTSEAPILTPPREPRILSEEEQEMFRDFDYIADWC
Chain of MARK4 (Q96L34 whole entry): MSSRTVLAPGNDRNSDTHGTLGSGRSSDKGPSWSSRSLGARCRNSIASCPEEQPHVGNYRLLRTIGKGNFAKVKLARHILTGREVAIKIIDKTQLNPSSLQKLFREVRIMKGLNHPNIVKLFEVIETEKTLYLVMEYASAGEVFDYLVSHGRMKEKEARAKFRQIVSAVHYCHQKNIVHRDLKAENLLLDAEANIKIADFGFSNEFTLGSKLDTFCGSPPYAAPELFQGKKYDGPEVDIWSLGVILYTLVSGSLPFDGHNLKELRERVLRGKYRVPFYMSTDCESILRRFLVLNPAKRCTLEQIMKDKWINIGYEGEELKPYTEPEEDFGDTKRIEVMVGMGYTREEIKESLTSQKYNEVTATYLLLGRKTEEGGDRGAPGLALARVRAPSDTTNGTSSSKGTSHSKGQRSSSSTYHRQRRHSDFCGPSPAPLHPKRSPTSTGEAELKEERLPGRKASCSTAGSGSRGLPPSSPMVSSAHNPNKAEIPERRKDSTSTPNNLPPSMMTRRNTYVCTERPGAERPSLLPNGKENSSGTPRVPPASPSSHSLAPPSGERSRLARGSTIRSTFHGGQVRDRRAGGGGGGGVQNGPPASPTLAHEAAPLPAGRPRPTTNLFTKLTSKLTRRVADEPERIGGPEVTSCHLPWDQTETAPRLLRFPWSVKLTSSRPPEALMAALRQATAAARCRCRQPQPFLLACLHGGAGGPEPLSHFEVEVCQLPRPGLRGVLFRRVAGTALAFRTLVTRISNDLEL
Chain of PKCz (Q05513 whole entry): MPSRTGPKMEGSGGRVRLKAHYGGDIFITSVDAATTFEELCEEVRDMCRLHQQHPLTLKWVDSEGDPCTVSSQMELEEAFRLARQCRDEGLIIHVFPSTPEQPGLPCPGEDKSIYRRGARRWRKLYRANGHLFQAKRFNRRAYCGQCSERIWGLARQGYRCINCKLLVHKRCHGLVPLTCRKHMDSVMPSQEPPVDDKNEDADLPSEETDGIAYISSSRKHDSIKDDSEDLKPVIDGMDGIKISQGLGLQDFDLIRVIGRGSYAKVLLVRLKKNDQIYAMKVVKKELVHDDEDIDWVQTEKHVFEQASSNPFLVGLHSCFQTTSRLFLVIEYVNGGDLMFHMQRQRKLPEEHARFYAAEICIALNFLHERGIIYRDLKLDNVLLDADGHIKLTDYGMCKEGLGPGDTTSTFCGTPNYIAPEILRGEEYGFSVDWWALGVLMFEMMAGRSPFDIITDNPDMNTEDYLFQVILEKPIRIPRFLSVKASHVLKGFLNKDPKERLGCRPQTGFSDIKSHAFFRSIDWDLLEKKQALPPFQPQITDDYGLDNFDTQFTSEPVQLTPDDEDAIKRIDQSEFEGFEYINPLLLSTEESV
Chain of HER4 (Q15303 26-1308): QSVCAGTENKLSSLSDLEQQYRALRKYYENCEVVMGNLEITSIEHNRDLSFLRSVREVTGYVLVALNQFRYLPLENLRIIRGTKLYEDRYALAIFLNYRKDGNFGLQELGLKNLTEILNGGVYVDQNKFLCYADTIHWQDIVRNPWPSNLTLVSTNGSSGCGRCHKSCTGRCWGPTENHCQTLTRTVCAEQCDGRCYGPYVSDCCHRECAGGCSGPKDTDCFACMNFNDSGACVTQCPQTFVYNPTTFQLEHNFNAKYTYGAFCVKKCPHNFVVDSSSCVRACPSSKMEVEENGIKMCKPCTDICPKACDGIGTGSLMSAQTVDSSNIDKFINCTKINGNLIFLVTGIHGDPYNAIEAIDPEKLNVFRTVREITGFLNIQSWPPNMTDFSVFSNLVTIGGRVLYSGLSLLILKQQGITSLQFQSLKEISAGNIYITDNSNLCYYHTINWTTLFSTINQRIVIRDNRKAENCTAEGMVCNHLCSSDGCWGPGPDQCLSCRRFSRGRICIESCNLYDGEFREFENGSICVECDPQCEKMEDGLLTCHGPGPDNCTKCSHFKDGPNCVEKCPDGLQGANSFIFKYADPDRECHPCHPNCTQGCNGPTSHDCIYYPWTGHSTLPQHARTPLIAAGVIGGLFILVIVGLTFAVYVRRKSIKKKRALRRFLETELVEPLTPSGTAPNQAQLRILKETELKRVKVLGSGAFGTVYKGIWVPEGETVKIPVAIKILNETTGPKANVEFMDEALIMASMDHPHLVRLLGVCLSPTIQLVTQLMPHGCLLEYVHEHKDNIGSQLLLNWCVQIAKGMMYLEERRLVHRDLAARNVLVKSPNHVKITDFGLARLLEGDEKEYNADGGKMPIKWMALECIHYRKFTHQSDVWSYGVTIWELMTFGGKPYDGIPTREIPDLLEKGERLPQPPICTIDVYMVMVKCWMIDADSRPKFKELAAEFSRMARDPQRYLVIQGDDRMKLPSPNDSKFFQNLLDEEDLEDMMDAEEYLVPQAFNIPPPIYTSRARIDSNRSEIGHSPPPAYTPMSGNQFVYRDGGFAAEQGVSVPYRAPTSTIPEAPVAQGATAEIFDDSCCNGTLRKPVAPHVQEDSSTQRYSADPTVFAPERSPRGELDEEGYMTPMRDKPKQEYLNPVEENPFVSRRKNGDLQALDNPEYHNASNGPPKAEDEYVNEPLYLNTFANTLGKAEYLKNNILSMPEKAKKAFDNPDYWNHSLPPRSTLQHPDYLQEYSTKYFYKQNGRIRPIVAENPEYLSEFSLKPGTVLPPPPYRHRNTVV

In the case of `Nc1ccc2c(NC3CC3)nc(-c3ccccc3)nc2c1` [1b, N^4-Cyclopropyl-2-phenyl-4,7-quinazolinediamine], the remaining activity at 10 µM (BTK) is reported as 87%, the remaining activity at 10 µM (CDK2-Cyclin A) is reported as 94% and the remaining activity at 10 µM (DYRK1A) is reported as 95%. It also gave a remaining activity at 10 µM (EF2K) of 102%, a remaining activity at 10 µM (ERK1) of 99% and a remaining activity at 10 µM (ERK8) of 91%. The remaining activity at 10 µM (HER4) was 71%, the remaining activity at 10 µM (HIPK3) was 115% and the remaining activity at 10 µM (IKKε) was 89%. For the same compound, the remaining activity at 10 µM (JNK3) was 88%, the remaining activity at 10 µM (MARK3) was 99% and the remaining activity at 10 µM (MARK4) was 93%. The remaining activity at 10 µM (MST2) was 87%, the remaining activity at 10 µM (NEK2α) was 119% and the remaining activity at 10 µM (PAK4) was 80%. For the same compound, the remaining activity at 10 µM (PAK5) was 88%, the remaining activity at 10 µM (PIM3) was 77% and the remaining activity at 10 µM (PKBα) was 109%. The remaining activity at 10 µM (PKCz) was 96%, the remaining activity at 10 µM (PRK2) was 103% and the remaining activity at 10 µM (ROCK 2) was 109%. It also gave a remaining activity at 10 µM (SRPK1) of 83%, a remaining activity at 10 µM (TBK1) of 79% and a remaining activity at 10 µM (TTK) of 92%. For the same compound, the remaining activity at 10 µM (YES1) was 96%, the remaining activity at 10 µM (p38α MAPK) was 88% and the remaining activity at 10 µM (p38β MAPK) was 89%.
